The values that follow come from US11446287B2, “Compounds and methods for EP300 or CBP modulation and indications therefor” (Opna Immuno-Oncology SA, priority 2019, dated 2022).

As usually defined, the pIC50 is the negative decadic logarithm of the IC50, by convention in mol/L.

pIC50: −log10 of the molar value.

For this assay, the target named is T1, Recombinant human CBP containing the bromodomain (CBP-BD (1043-1159)) (Homo sapiens, UniProt Q92793).
T1 construct: Recombinant human CBP bromodomain (CBP-BD (1043-1159)); made in house; host or cells: E. coli BL21-CodonPlus (DE3), modified pET vector
T1 sequence (Q92793 1081-1197): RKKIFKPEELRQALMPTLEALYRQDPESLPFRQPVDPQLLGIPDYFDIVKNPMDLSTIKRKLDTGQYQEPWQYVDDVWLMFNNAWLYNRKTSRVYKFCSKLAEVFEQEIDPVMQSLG
Briefly: CBP Alphascreen binding assay. The note with it: read-out: CREBBP (CBP) IC50. On the procedure: CBP Alphascreen Binding Assay
Binding of compounds of Formula (I) with CBP was assessed using Alphascreen™ binding assay. The inhibition of the interaction between the CBP bromodomain and its acetylated target protein was measured quantitatively using recombinant CBP, an acetylated Histone 3 peptide and AlphaScreen™ technology. In absence of inhibition of the CBP protein bound to AlphaScreen™ nickel chelate acceptor beads can interact with the acetylated Histone 3 peptide which was immobilized by the AlphaScreen™ Streptavidin coated beads. This interaction brings donor and acceptor beads in proximity. The close proximity allows the singlet oxygen produced by laser excitation of the donor beads to reach the acceptor beads and generate a luminescence signal. CBP inhibitors result in a decrease in the proximity signal through an inhibition of the CBP—acetylated peptide interaction.
Recombinant human CBP containing the bromodomain (CBP-BD (1043-1159)) was prepared and purified as described in protein expression and purification session. The peptide was human Histone H345-64K56Ac-Biotin (Anaspec CA, USA).
Protocol for CBP assay: All components are prepared in buffer composed of 50 mM HEPES pH 7.5, 50 mM NaCl, 0.01% BSA, 0.01% Triton X-100, 2 mM DTT. Test compounds and DMSO vehicle are diluted 1:50 in buffer and a 4 μL volume was transferred to an Alphaplate. 5.5 μL of CBP protein and 5.5 μL of peptide are added to wells containing 4 μL of various concentrations of test compounds of Formula (I) or DMSO vehicle in an Alphaplate (PerkinElmer GA, USA) and incubated for 1 hour at room temperature. 5 μL donor and acceptor bead mixture was then added with final concentrations of 7.5 μg/ml. 60 minutes after bead addition, Alpha signal was read on the Envision spectrometer (λEx 680 nm, λEm 520-620 nm). Final concentrations of bromodomain proteins and peptide are as shown below.
All data were normalized to the mean of 16 high and 16 low control wells on each plate. A four parameter curve fit of the following formula was then applied: Y=A+((B−A)/(1+((C/x)^D))) Where ‘A’ is the minimum, ‘B’ is the maximum, ‘C’ is the IC50 and ‘D’ is the Hill slope. Protein Expression and Purification
Recombinant human CBP bromodomain (CBP-BD (1043-1159)) was expressed in E. coli cells (in a modified pET vector) with an N-terminal six-His tag and purified using a combination of both IMAC (Ni-affinity) and size exclusion chromatography steps.
Recombinant CBP protein was expressed using the E. coli strain BL21-CodonPlus (DE3) (Agilent Technologies CA, USA). Cells were grown in Terrific Broth (TB) media to an OD600 of 0.92 at 37° C. at which temperature was reduced to 20° C., protein was induced with 1.0 mM isopropyl-β-D-thiogalactopyranoside (“IPTG”) for 20 hours and harvested by centrifugation at 8500×g for 20 minutes. Cells were re-suspended in 0.1M K2PO4 pH 8.0, 250 mM NaCl, 10% Glycerol, 0.75% NP-40, 25 mM Imidazole, with 0.2 mg/ml Lysozyme, 0.2 mM phenylmethanesulfonyl fluoride (“PMSF”), […] (“BME”), 25 μg/ml DNase I, incubated on ice for 30 minutes and lysed with a cell disruptor (MicroFluidics MA, USA). The lysate was clarified by centrifugation at 20,000×g for 1 hour. The protein was captured with Ni-NTA resin (Life Technologies, USA). Contaminating proteins were washed off with 40 mM HEPES pH 7.5, 500 mM NaCl, 5% Glycerol, 5 mM Imidazole, and 5 mM BME. Following 3× wash steps, protein was eluted using 400 mM Imidazole in 40 mM HEPES pH 7.5, 400 mM NaCl, and 5 mM BME. The protein was further purified using a size exclusion column (26/600 Superdex 200, GE Biosciences NJ, USA) in 40 mM HEPES pH 7.5, 250 mM NaCl, 5 mM BME. The protein was aliquoted and flash-frozen in liquid Nitrogen.
For orientation: Bead proximity is the source of the signal in Alpha formats.
Regarding `Cc1noc(C)c1-c1cnc2c(c1)c(-c1ccc(C(=O)O)cc1OC1COC1)cn2[C@@H](C)c1ccccn1` [P-0137, (S)-4-(5-(3,5-dimethylisoxazol-4-yl)-1-(1-(pyridin-2-yl)ethyl)-1H-pyrrolo[2,3-b]pyridin-3-yl)-3-(oxetan-3-yloxy)benzoic acid], the pIC50 is 6.00 to 10.00.

For `Cc1noc(C)c1-c1cnc2c(c1)c(-c1ccc(C(=O)O)cc1OCC1CC1)cn2[C@@H](C)c1ccccn1` [P-0138, (S)-3-(cyclopropylmethoxy)-4-(5-(3,5-dimethylisoxazol-4-yl)-1-(1-(pyridin-2-yl)ethyl)-1H-pyrrolo[2,3-b]pyridin-3-yl)benzoic acid], the negative-log IC50 (pIC50) was 6.00 to 10.00.

`Cc1noc(C)c1-c1cnc2c(c1)c(-c1ccc(C(=O)O)cc1OCc1ccccc1)cn2[C@@H](C)c1ccccn1` [P-0139, (S)-3-(benzyloxy)-4-(5-(3,5-dimethylisoxazol-4-yl)-1-(1-(pyridin-2-yl)ethyl)-1H-pyrrolo[2,3-b]pyridin-3-yl)benzoic acid]: the pIC50 was 6.00 to 10.00.

Turning to `COc1ccc(C(=O)O)cc1-c1cn(C(C)c2ccccc2)c2cc(-c3c(C)noc3C)cnc12` (stereo not shown) [P-0140, 3-(6-(3,5-dimethylisoxazol-4-yl)-1-(1-phenylethyl)-1H-pyrrolo[3,2-b]pyridin-3-yl)-4-methoxybenzoic acid], the negative logarithm of the IC50 (pIC50) was 5.10 to 6.00.

For `Cc1noc(C)c1-c1cnc2c(-c3cc(C(=O)O)ccc3Cl)cn(C(C)c3ccccc3)c2c1` (stereo not shown) [P-0141, 4-chloro-3-(6-(3,5-dimethylisoxazol-4-yl)-1-(1-phenylethyl)-1H-pyrrolo[3,2-b]pyridin-3-yl)benzoic acid], the pIC50 is 6.00 to 10.00.

On to `COc1cc(C(=O)O)ccc1-c1cn([C@@H](C)c2ccccn2)c2cc(-c3c(C)noc3C)cnc12` [P-0142, (S)-4-(6-(3,5-dimethylisoxazol-4-yl)-1-(1-(pyridin-2-yl)ethyl)-1H-pyrrolo[3,2-b]pyridin-3-yl)-3-methoxybenzoic acid], for which the pIC50 is 6.00 to 10.00.

Turning to `Cc1noc(C)c1-c1cnc2c(CC3CCC3)cn(-c3ccc(O)nc3)c2c1` [P-0143, 5-(3-(cyclobutylmethyl)-6-(3,5-dimethylisoxazol-4-yl)-1H-pyrrolo[3,2-b]pyridin-1-yl)pyridin-2-ol], the pIC50 was 5.10 to 6.00.

Take `COc1cc(C(=O)O)cc(O)c1-c1cn([C@@H](C)c2ccccn2)c2ncc(-c3c(C)noc3C)cc12` [P-0144, (S)-4-(5-(3,5-dimethylisoxazol-4-yl)-1-(1-(pyridin-2-yl)ethyl)-1H-pyrrolo[2,3-b]pyridin-3-yl)-3-hydroxy-5-methoxybenzoic acid]: the pIC50 is 6.00 to 10.00.

As for `Cc1noc(C)c1-c1cnc2c(c1)c(-c1ccnc(O)c1)cn2[C@@H](C)c1ccccn1` [P-0145, (S)-4-(5-(3,5-dimethylisoxazol-4-yl)-1-(1-(pyridin-2-yl)ethyl)-1H-pyrrolo[2,3-b]pyridin-3-yl)pyridin-2-ol], the pIC50 is 3.00 to 5.10.

As to `COc1cc(C(=O)O)cc(OC)c1-c1cn([C@@H](C)c2ccccn2)c2cc(-c3c(C)noc3C)cnc12` [P-0146, (S)-4-(6-(3,5-dimethylisoxazol-4-yl)-1-(1-(pyridin-2-yl)ethyl)-1H-pyrrolo[3,2-b]pyridin-3-yl)-3,5-dimethoxybenzoic acid], the pIC50 was 5.10 to 6.00.

As to `CCOc1cc(C(=O)O)cc(OCC)c1-c1cn([C@@H](C)c2ccccn2)c2ncc(-c3c(C)noc3C)cc12` [P-0147, (S)-4-(5-(3,5-dimethylisoxazol-4-yl)-1-(1-(pyridin-2-yl)ethyl)-1H-pyrrolo[2,3-b]pyridin-3-yl)-3,5-diethoxybenzoic acid], the pIC50 was 6.00 to 10.00.

For `CC[C@@H](c1ccccn1)n1cc(-c2cc(C(=O)O)ccc2Cl)c2ncc(-c3c(C)noc3C)cc21` [P-0148, (S)-4-chloro-3-(6-(3,5-dimethylisoxazol-4-yl)-1-(1-(pyridin-2-yl)propyl)-1H-pyrrolo[3,2-b]pyridin-3-yl)benzoic acid], the pIC50 is 6.00 to 10.00.

Regarding `Cc1noc(C)c1-c1cc2c(cn1)c(CC1CCC1)cn2-c1c(Cl)cc(C(=O)O)cc1Cl` [P-0149, 3,5-dichloro-4-(3-(cyclobutylmethyl)-6-(3,5-dimethylisoxazol-4-yl)-1H-pyrrolo[3,2-c]pyridin-1-yl)benzoic acid], the negative-log IC50 (pIC50) is 6.00 to 10.00.

Turning to `Cc1noc(C)c1-c1cnc2c(-c3ccccc3)cn(-c3c(Cl)cc(C(=O)O)cc3Cl)c2c1` [P-0150, 3,5-dichloro-4-(6-(3,5-dimethylisoxazol-4-yl)-3-phenyl-1H-pyrrolo[3,2-b]pyridin-1-yl)benzoic acid], the negative logarithm of the IC50 (pIC50) is 6.00 to 10.00.

For `Cc1noc(C)c1-c1cnc2c(C3=CCOCC3)cn(-c3c(Cl)cc(C(=O)O)cc3Cl)c2c1` [P-0151, 3,5-dichloro-4-(3-(3,6-dihydro-2H-pyran-4-yl)-6-(3,5-dimethylisoxazol-4-yl)-1H-pyrrolo[3,2-b]pyridin-1-yl)benzoic acid], the pIC50 is 6.00 to 10.00.

For the molecule `COc1cc(C(=O)O)cc(OCC2CC2)c1-c1cn([C@@H](C)c2ccccn2)c2ncc(-c3c(C)noc3C)cc12` [P-0152, (S)-3-(cyclopropylmethoxy)-4-(5-(3,5-dimethylisoxazol-4-yl)-1-(1-(pyridin-2-yl)ethyl)-1H-pyrrolo[2,3-b]pyridin-3-yl)-5-methoxybenzoic acid], the pIC50 is 6.00 to 10.00.

Take `COc1cc(C(=O)O)cc(OCC(F)(F)F)c1-c1cn([C@@H](C)c2ccccn2)c2ncc(-c3c(C)noc3C)cc12` [P-0153, (S)-4-(5-(3,5-dimethylisoxazol-4-yl)-1-(1-(pyridin-2-yl)ethyl)-1H-pyrrolo[2,3-b]pyridin-3-yl)-3-methoxy-5-(2,2,2-trifluoroethoxy)benzoic acid]: the pIC50 was 6.00 to 10.00.

`Cc1noc(C)c1-c1cnc2c(-c3ccc(C(=O)O)cc3)c(C(F)(F)F)n([C@@H](C)c3ccccn3)c2c1` [P-0154, (S)-4-(6-(3,5-dimethylisoxazol-4-yl)-1-(1-(pyridin-2-yl)ethyl)-2-(trifluoromethyl)-1H-pyrrolo[3,2-b]pyridin-3-yl)benzoic acid]: the negative-log IC50 (pIC50) is 6.00 to 10.00.

On to `Cc1noc(C)c1-c1cnc2c(-c3ccccc3Cl)cn(C(C)(c3ccccn3)c3ccccn3)c2c1` [P-0155, 4-(3-(2-chloropheny1)-1-(1,1-di(pyridin-2-yl)ethyl)-1H-pyrrolo[3,2-b]pyridin-6-yl)-3,5-dimethylisoxazole], for which the pIC50 is 6.00 to 10.00.

As to `Cc1noc(C)c1-c1cnc2c(c1)c(-c1ccc(C(=O)O)cc1OC(F)(F)F)cn2C(C1CC1)C1CC1` [P-0156, 4-(1-(dicyclopropylmethyl)-5-(3,5-dimethylisoxazol-4-yl)-1H-pyrrolo[2,3-b]pyridin-3-yl)-3-(trifluoromethoxy)benzoic acid], the negative-log IC50 (pIC50) is 6.00 to 10.00.

Turning to `Cc1noc(C)c1-c1cnc2c(c1)c(-c1ccc(C(=O)O)cc1OC(F)(F)F)cn2CC1CC(F)(F)C1` [P-0157, 4-(1-((3,3-difluorocyclobutyl)methyl)-5-(3,5-dimethylisoxazol-4-yl)-1H-pyrrolo[2,3-b]pyridin-3-yl)-3-(trifluoromethoxy)benzoic acid], the pIC50 is 6.00 to 10.00.

`Cc1noc(C)c1-c1cnc2c(c1)c(-c1ccc(C(=O)O)cc1OC(F)(F)F)cn2-c1ccccn1` [P-0158, 4-(5-(3,5-dimethylisoxazol-4-yl)-1-(pyridin-2-yl)-1H-pyrrolo[2,3-b]pyridin-3-yl)-3-(trifluoromethoxy)benzoic acid]: the negative logarithm of the IC50 (pIC50) was 6.00 to 10.00.
